The text below walks through data of patent US20230065740A1, “CYCLIN-DEPENDENT KINASE INHIBITORS” (SPV THERAPEUTICS INC., priority 2018, published 2023).

The structures appear in SMILES notation.

For one test, the target named is CDK4-CYCLIND1 (Homo sapiens, UniProt P11802). As to the kind of experiment: Microfluidic LabChip kinase inhibition assay, CDK4-CyclinD1. As to conditions: CDK4 IC50 (μM), Table 2; 200 μM ATP, 1 nM enzyme.
For a further test, the target named is T1, CDK6-CYCLIND3 (Homo sapiens, UniProt Q00534).
T1 construct: purchased Carna
T1 sequence (Q00534 whole entry): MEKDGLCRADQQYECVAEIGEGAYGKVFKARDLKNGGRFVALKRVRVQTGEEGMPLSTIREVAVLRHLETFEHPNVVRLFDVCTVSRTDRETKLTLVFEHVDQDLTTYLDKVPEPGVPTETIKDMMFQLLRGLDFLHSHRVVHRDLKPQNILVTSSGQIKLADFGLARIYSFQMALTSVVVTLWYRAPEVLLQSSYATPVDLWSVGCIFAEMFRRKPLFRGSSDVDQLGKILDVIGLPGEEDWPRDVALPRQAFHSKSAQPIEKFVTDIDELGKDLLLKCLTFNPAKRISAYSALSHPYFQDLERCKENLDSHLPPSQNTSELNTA
T1 sequence (P30281 whole entry partner): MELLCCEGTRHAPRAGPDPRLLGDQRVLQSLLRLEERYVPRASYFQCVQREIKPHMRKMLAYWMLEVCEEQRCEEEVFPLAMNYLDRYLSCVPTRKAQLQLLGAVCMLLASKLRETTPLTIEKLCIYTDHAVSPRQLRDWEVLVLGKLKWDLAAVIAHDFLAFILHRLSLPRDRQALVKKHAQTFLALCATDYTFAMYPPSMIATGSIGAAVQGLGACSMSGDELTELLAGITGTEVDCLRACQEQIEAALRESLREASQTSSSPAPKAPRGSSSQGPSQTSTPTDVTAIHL
The test can be described thus: Microfluidic LabChip kinase inhibition assay, CDK6-CyclinD3. In kind it is biochemical. Conditions: Table 2; 300 μM ATP, 2 nM enzyme; read-out: CDK6 IC50.

CDK4-CYCLIND1, sequence (P11802 whole entry): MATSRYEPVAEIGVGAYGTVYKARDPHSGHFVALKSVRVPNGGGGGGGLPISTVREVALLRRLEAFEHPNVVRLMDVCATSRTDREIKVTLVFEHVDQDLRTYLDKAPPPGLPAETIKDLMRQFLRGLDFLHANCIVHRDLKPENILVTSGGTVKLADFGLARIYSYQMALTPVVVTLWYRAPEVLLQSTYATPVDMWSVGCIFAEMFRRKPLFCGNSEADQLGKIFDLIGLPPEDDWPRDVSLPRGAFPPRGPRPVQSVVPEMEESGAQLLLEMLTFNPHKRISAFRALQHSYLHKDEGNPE
CDK4-CYCLIND1, sequence (P24385 whole entry partner): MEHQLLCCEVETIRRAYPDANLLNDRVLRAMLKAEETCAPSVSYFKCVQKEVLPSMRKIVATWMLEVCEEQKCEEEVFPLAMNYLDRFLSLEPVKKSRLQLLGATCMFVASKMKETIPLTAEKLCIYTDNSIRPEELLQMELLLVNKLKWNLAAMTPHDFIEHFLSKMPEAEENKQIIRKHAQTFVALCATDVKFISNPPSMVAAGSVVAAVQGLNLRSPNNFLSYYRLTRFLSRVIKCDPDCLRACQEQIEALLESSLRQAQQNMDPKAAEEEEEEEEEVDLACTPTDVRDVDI

For the molecule `O=C1NCCC12Cc1cnc(Nc3cc(C(F)(F)F)c(N4CCNCC4)cn3)nc1N2C1CCCC1` (centres unmarked) [Compound C17, 7′-cyclopentyl-2′-((5-(piperazin-1-yl)-4-(trifluoromethyl)pyridin-2-yl)amino)-5′,7′-dihydrospiro[pyrrolidine-3,6′-pyrrolo[2,3-d]pyrimidin]-2-one], the figures for the IC50 at CDK4-CYCLIND1 and on CDK6-CYCLIND3 were 18.8 µM and more than 30 µM, respectively.

As for `CN1CCN(c2cnc(Nc3ncc4c(n3)N(C3CCCC3)C3(CCNC3=O)C4)cc2C(F)(F)F)CC1` (centres unmarked) [Compound C18, 7′-cyclopentyl-2′-((5-(4-methylpiperazin-1-yl)-4-(trifluoromethyl)pyridin-2-yl)amino)-5′,7′-dihydrospiro[pyrrolidine-3,6′-pyrrolo[2,3-d]pyrimidin]-2-one], the IC50 against CDK4-CYCLIND1 and at CDK6-CYCLIND3 was more than 30 µM in each case.

With `CN1CCC2(Cc3cnc(Nc4ccc(N5CCNCC5)cn4)nc3N2C2CCCC2)C1=O` (centres unmarked) [Compound C19, 7′-cyclopentyl-1-methyl-2′-((5-(piperazin-1-yl)pyridin-2-yl)amino)-5′,7′-dihydrospiro[pyrrolidine-3,6′-pyrrolo[2,3-d]pyrimidin]-2-one], the IC50 on CDK4-CYCLIND1 and at CDK6-CYCLIND3 was more than 30 µM each time.

Regarding `CN1CCN(c2ccc(Nc3ncc4c(n3)N(C3CCCC3)C3(CCN(C)C3=O)C4)nc2)CC1` (centres unmarked) [Compound C20, 7′-cyclopentyl-1-methyl-2′-((5-(4-methylpiperazin-1-yl)pyridin-2-yl)amino)-5′,7′-dihydrospiro[pyrrolidine-3,6′-pyrrolo[2,3-d]pyrimidin]-2-one], the IC50 at CDK4-CYCLIND1 and at CDK6-CYCLIND3 was more than 30 µM in each case.

As to `O=C1N(Cc2ccccc2)CCC12Cc1cnc(Nc3ccc(N4CCNCC4)cn3)nc1N2C1CCCC1` (centres unmarked) [Compound C21], the IC50 on CDK4-CYCLIND1 and at CDK6-CYCLIND3 was more than 30 µM each time.

For the molecule `CN1CCN(c2ccc(Nc3ncc4c(n3)N(C3CCCC3)C3(CCN(Cc5ccccc5)C3=O)C4)nc2)CC1` (centres unmarked) [Compound C22, 1-benzyl-7′-cyclopentyl-2′-((5-(4-methylpiperazin-1-yl)pyridin-2-yl)amino)-5′,7′-dihydrospiro[pyrrolidine-3,6′-pyrrolo[2,3-d]pyrimidin]-2-one], the IC50 is 16.5 µM against CDK4-CYCLIND1 and more than 30 µM at CDK6-CYCLIND3.

As to `CC(C)N1CCN(c2ccc(Nc3ncc4c(n3)N(C3CCCC3)C3(CCN(Cc5ccccc5)C3=O)C4)nc2)CC1` (centres unmarked) [Compound C23, 1-benzyl-7′-cyclopentyl-2′-((5-(4-isopropylpiperazin-1-yl)pyridin-2-yl)amino)-5′,7′-dihydrospiro[pyrrolidine-3,6′-pyrrolo[2,3-d]pyrimidin]-2-one], the IC50 at CDK4-CYCLIND1 is 17.7 µM; on CDK6-CYCLIND3 it was more than 30 µM.

For the molecule `CN1CCN(c2ccc(Nc3ncc4c(n3)N(C3CCCC3)C3(CCN(Cc5ccccc5)C3=O)C4)cc2)CC1` (centres unmarked) [Compound C24, 1-benzyl-7′-cyclopentyl-2′-((4-(4-methylpiperazin-1-yl)phenyl)amino)-5′,7′-dihydrospiro[pyrrolidine-3,6′-pyrrolo[2,3-d]pyrimidin]-2-one], the IC50 at CDK4-CYCLIND1 is 12.3 µM; at CDK6-CYCLIND3, more than 30 µM.

As for `CN1CCCC2(Cc3cnc(Nc4ccc(N5CCNCC5)cn4)nc3N2C2CCCC2)C1=O` (centres unmarked) [Compound C25, 7′-cyclopentyl-1-methyl-2′-((5-(piperazin-1-yl)pyridin-2-yl)amino)-5′,7′-dihydrospiro[piperidine-3,6′-pyrrolo[2,3-d]pyrimidin]-2-one], the IC50 against CDK4-CYCLIND1 and at CDK6-CYCLIND3 was more than 30 µM in each case.

As for `CN1CCN(c2ccc(Nc3ncc4c(n3)N(C3CCCC3)C3(CCCN(C)C3=O)C4)nc2)CC1` (centres unmarked) [Compound C26, 7′-cyclopentyl-1-methyl-2′-((5-(4-methylpiperazin-1-yl)pyridin-2-yl)amino)-5′,7′-dihydrospiro[piperidine-3,6′-pyrrolo[2,3-d]pyrimidin]-2-one], the half-maximal inhibitory concentration (IC50) on CDK4-CYCLIND1 and on CDK6-CYCLIND3 was more than 30 µM each time.
